Data: patent US20070219346A1, “Glucose sensor and uses thereof” (McGill University, priority 2002, published 2007)
“Also recorded” adds a separate entry of the source.

Legend:
[1] = Glucokinase activity of purified tagged glucokinases, coupled glucose 6-P dehydrogenase/NADPH assay; assay type: biochemical, human
Procedure: Glucokinase activity was assayed as described previously [Storer, A. C., et al., Biochem. J. 141:205-209 (1974)] with the following modifications. Reactions were carried out at 25° C. in 50 nM glycylglycinate buffer, pH 7.8, containing 1 mM NADP, 100 mM KCl, 5 mM MgCl2, 1 unit of glucose 6-P dehydrogenase, 100 mM glucose, 5 mM ATP, and glucokinase in a total volume of 1 ml. All reaction mixtures were incubated at 25° C.
Production of NADPH was followed by the increase in absorbance at 340 nm using a spectrophotometer. Glucokinase activity may then be calculated using the following formula: Activity (units/ml)=(Δ OD/min)/0.15×dilution factor
A unit of activity is the amount of glucokinase which transforms, under optimal conditions, 1 μmole of substrate/min at room temperature.
The glucokinase activity of the purified glucokinases was assayed as above.

[2] = Enzymatic activity of glucokinase immobilized on solid supports or electrode surfaces; assay type: biochemical, human; conditions: for glucokinase activity while immobilized: on glutathione or Ni2+-containing supports
Procedure: The enzymatic activity of the wild-type GST and His-tagged glucokinases was measured while the proteins were immobilized on glutathione or Ni^2+-containing supports, respectively.
This was not a complete surprise, as the final coupling requires free amino groups of the protein. Most likely there are a significant number of such groups involved, but in the process of participating in the coupling, enzyme function is destroyed.
Each step was analyzed by bioimpedance measurements. First, nitrilotriacetic acid (NTA) ligand (FIG. 9A) was coupled to SP electrode surface using 1-ethyl-3-(3-dimethylaminopropyl)-carbodiimide (EDC) activation (FIG. 9B). Electrodes were then loaded with Ni^2+ cations. Wild-type His-GLK (1 μg) was then avidly coupled to the electrode surface, again corroborated by impedance measurements (FIG. 9C). These prepared electrodes were subsequently used as glucose biosensors.

[3] = Impedance biosensing with His-GLK immobilized on Ni2+-NTA screen-printed electrodes; design: species or system human; conditions: 100 mM glucose, Ni2+-NTA screen-printed electrode
Procedure: FIG. 9 depicts A) Immobilized-metal affinity chromatography (IMAC). Adjacent histidine residues in His-tagged proteins interact with the Ni^2+-NTA matrix. B-D) Typical Nyquist diagrams obtained for different electrode surface conditions. The imaginary (Zi) and real (Zr) complex impedence elements were calculated by computer following impedence measurements. B) Modification of screen-printed electrode (SPE) with NTA ligand. Nitrilotriacetic acid (NTA) ligand was coupled to the bare SPE electrode surface using 1-ethyl-3-(3-dimethylaminopropyl)-carbodiimide (EDC) activation. C) Immobilization of glucokinase. The SPE was loaded with Ni^2+ cations (Ni2+) and His-tagged wild-type glucokinase (GLK) immobilized on the surface. D) Detection of glucose.
To establish the use of modified re-engineered glucokinase molecules as potential mediators of glucose recognition, experiments were performed using impedance biosensing technology. The initial objectives were to covalently immobilize wild-type glucokinase on two potential electrode substrates: silicon (Si; industry standard), and screen-printed graphite (SP) electrodes [Marquette, C. A. et al., Anal. Chem., 78:959-964 (2006)]. Impedance measurements were used to monitor the changes of glucokinase in the presence of glucose. […]
Each step was analyzed by bioimpedance measurements. […]

[4] = Intrinsic fluorescence spectroscopy of His-tagged glucokinase immobilized on Ni-NTA agarose; assay type: binding, human; conditions: for change of maximal intrinsic fluorescence in presence of glucose, immobilized protein: 100 mM glucose, Ni-NTA agarose bound
Procedure: FIG. 8 depicts fluorescence spectroscopy analysis of His-tagged glucokinase immobilized on Ni-NTA agarose (QIAGEN). The intrinsic fluorescence intensity spectra were measured in the absence and presence of 100 mM glucose following excitation at 280 nm. The baseline spectrum of immobilized His-tagged glucokinase alone is shown (Ni-NTA-His-GLK, thin line).
Intrinsic fluorescence experiments were performed on purified immobilized wild-type N-terminal His-tagged glucokinase (FIG. 8). […] Next, immobilized His-GLK that had been previously incubated with glucose was washed with glucose-free buffer. […] When the washed Ni^2+-bound His-GLK was incubated with glucose, again an upward shift in the fluorescence intensity occurred, indicative of a recurring conformational change in the protein.

[5] = Intrinsic fluorescence spectroscopy of His-tagged glucokinase in solution; assay type: binding, human; conditions: 100 mM glucose, excitation 280 nm
Procedure: FIG. 7 depicts fluorescence spectroscopy analysis of His-tagged glucokinase. The intrinsic fluorescence intensity spectrum of His-tagged wild-type glucokinase was measured following excitation at 280 nm. The baseline spectrum of His-tagged glucokinase alone is shown (His-GLK, thin dashed line).
Intrinsic fluorescence experiments with glucokinase were performed to document and verify glucose-induced conformational changes, which is an absolute requirement for impedance biosensing to be successful. Purified wild-type N-terminal His-tagged glucokinase (10 μg) with enzyme specific activity of ≅200 U/mg was used in a 10×10 mm^2 cuvette. After the addition of 100 mM glucose, intrinsic fluorescence spectroscopy was performed (excitation wavelength 280 nm; maximum fluorescence 312 nm). There is a 20-25% increase in maximal intrinsic fluorescence at 312 nm with the addition of 100 mM glucose, reflective of conformational changes in the His-tagged glucokinase (FIG. 7). This is similar to native wild-type glucokinase [Xu L Z, Zhang W, Weber I T, Harrison R W, Pilkis S J. 1994. Site-directed mutagenesis studies on the determinants of sugar specificity and cooperative behavior of human beta-cell glucokinase. J Biol Chem 269:27458-27465; and Xu L Z, Weber I T, Harrison R W, Gidh-Jain M, Pilkis S J. 1995. […]

change of maximal intrinsic fluorescence in presence of glucose, immobilized protein ([4]; listed as Ni-NTA-His-GLK)	reversibility of glucose binding ([4]; immobilized, washed with glucose-free buffer)	increase in maximal intrinsic fluorescence at 312 nm [5]	Substance	glucokinase enzymatic activity ([1]; purified affinity-tagged protein, 100 mM glucose, 5 mM ATP, 25° C.)	enzyme specific activity ([1]; purified wild-type N-terminal His-tagged glucokinase) [U/mg]	glucokinase activity while immobilized [2]	glucokinase activity while immobilized ([2]; listed as His-tagged glucokinase)	impedance change in the presence of glucose [3]	impedance change in the presence of glucose ([3]; listed as His-tagged GLK)	change of maximal intrinsic fluorescence in presence of glucose, immobilized protein [4]	change of maximum intrinsic fluorescence intensity on glucose addition ([5]; in solution)	enzyme activity after covalent coupling to electrode surface ([2]; nitrobenzenediazoniun/glutaraldehyde coupling)
maximum fluorescence intensity increased	reversible	20-25%	His-GLK: wild-type human liver glucokinase with N-terminal polyhistidine tag, expressed from pET-15b in E. coli	expected enzymatic activity; also recorded: significant glucokinase enzymatic activity	~200	retained glucokinase activity	retained full enzymatic activity	significant impedance changes	significant shift to the left in the curve	increase in the maximal intrinsic fluorescence	increase in the maximum fluorescence intensity	–
–	–	–	glucokinase: human wild-type glucokinase, hexokinase family enzyme binding D-glucose	–	–	–	–	–	–	–	–	total loss of enzyme activity
